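How tested: cells in 96-well plates exposed to compound for 48 hours at five concentrations. At the GI50, growth is halved.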 Active and inactive are the calls of the source. Rule as the data show it: active = GI50 up to about 1.1 µM and inactive = higher. Where only a bound is given, the exact number is not on record here.

Experiment in all cases: inhibition of tumour cell growth, NCI panel, 48 h
Assay [1] concerns A498.
In assay [2] the test system is A549.
Assay [3] concerns BT-549.
Assay [4] has as its system HOP-62.
In assay [5] the test system is Hs-578T.
For assay [6], the system named is M14.
Assay [7] relates to MDA-MB-435.
Assay [8] concerns MDA-N.
Assay [9] concerns Malme-3M.
Assay [10] deals with NCI-H522.
Assay [11] deals with NCI/ADR-RES.
Assay [12] relates to PC-3.
Assay [13] deals with SK-MEL-2.
Assay [14] has as its system SK-OV-3.
The subject of assay [15] is SNB-75.
In assay [16] the test system is T47D.
Assay [17] concerns TK-10.
For assay [18], the system named is U-251.
Assay [19] relates to UACC-257.
Assay [20] has as its system UACC-62.

As to `Nc1ccc(-c2nc3ccccc3s2)cc1CO`, the GI50 was < 0.01 µM (active) in [1]; > 58.7 µM (inactive) in assay [2]; 47.3 µM (inactive) in assay [3]; 31.5 µM (inactive) in [4]; > 83.6 µM (inactive) in [5]; 64.6 µM (inactive) in assay [6]. In addition, the GI50 in [7] is > 87.5 µM (inactive); in assay [8], > 86.3 µM (inactive); in assay [9], > 100 µM (inactive); in [10], 52.8 µM (inactive); in assay [11], > 79.8 µM (inactive); in [12], 66.8 µM (inactive). Moreover, the GI50 in assay [13] is > 85.7 µM (inactive); in assay [14], > 100 µM (inactive); in [15] it was > 100 µM (inactive); in assay [16], 33.2 µM (inactive); in [17], > 100 µM (inactive); in assay [18], > 76.4 µM (inactive). Also, the GI50 is > 87.7 µM (inactive) in assay [19] and 6.79 µM (inactive) in [20].

As for `O=C(CC1(O)CCCCC1)OC1CCCC1`, the GI50 in [1], in assay [2], in [3], in assay [4], in assay [5] and in [6] was > 100 µM (inactive) in each case. Further, the GI50 in assay [7], in assay [8], in [9], in assay [10], in [11] and in assay [12] was > 100 µM (inactive) throughout. The GI50 in assay [13], in assay [14], in assay [15], in [16], in [17] and in assay [18] was > 100 µM (inactive) in each case. In addition, the GI50 in assay [19] and in assay [20] was > 100 µM (inactive) throughout.

`CCOC(=S)SCC(=O)O`: the GI50 in assay [1], in [2], in assay [3], in assay [4], in [5] and in [6] was > 100 µM (inactive) in each case. The GI50 in assay [7], in [8], in assay [9], in [10], in [11] and in [12] was > 100 µM (inactive) in each case. Moreover, the GI50 in assay [13], in assay [14], in assay [15], in [16], in [17] and in assay [18] was > 100 µM (inactive) in each case. The GI50 in assay [19] and in assay [20] was > 100 µM (inactive) in each case.

As for `N#CC1=CNc2sccc2S1(=O)=O`, the GI50 in [1], in assay [2], in assay [3], in assay [4], in [5] and in assay [6] was > 100 µM (inactive) throughout. For the same molecule, the GI50 in assay [7] is 89.7 µM (inactive); in assay [8] it was > 100 µM (inactive); in assay [9], > 100 µM (inactive); in assay [10], > 100 µM (inactive); in assay [11], > 100 µM (inactive); in assay [12], > 100 µM (inactive). For the same molecule, the GI50 is > 100 µM (inactive) in [13]; > 100 µM (inactive) in [14]; > 100 µM (inactive) in [15]; 72.9 µM (inactive) in [16]; > 100 µM (inactive) in [17]; > 100 µM (inactive) in assay [18]. For the same molecule, the GI50 in [19] and in [20] was > 100 µM (inactive) throughout.

Take `CC1(C)C(c2ccccc2)=[N+]([O-])C(C)(C)N1O`: the GI50 in assay [1], in assay [2], in assay [3], in assay [4], in assay [5] and in assay [6] was > 10 µM (inactive) each time. Besides, the GI50 in [7], in [8], in [9], in assay [10], in assay [11] and in [12] was > 10 µM (inactive) throughout. Also, the GI50 in assay [13], in [14], in [15], in assay [16], in assay [17] and in assay [18] was > 10 µM (inactive) in each case. Also, the GI50 in assay [19] and in assay [20] was > 10 µM (inactive) each time.

For the molecule `COC(=O)C1CCC(=O)N1C(c1ccccc1)c1ccc(OC)c(OC)c1` (stereo not given), the GI50 in assay [1], in assay [2], in assay [3], in assay [4], in assay [5] and in assay [6] was > 100 µM (inactive) throughout. For the same molecule, the GI50 in [7], in assay [8], in assay [9], in [10], in assay [11] and in [12] was > 100 µM (inactive) throughout. The GI50 in assay [13] is > 100 µM (inactive); in [14], > 100 µM (inactive); in assay [15] it was 15.7 µM (inactive); in [16], > 100 µM (inactive); in [17] it was > 100 µM (inactive); in assay [18] it was > 100 µM (inactive). Further, the GI50 in assay [19] and in assay [20] was > 100 µM (inactive) throughout.

With `O=C1CCCC2=C(N1)C(=O)C=CC2=O`, the GI50 in [1] was 43.3 µM (inactive); in assay [2], > 63.1 µM (inactive); in assay [3], 16.7 µM (inactive); in [4], 44.4 µM (inactive); in [5], 29 µM (inactive); in [6], 39.8 µM (inactive). For the same molecule, the GI50 in [7] was 18.6 µM (inactive); in [8], 16.8 µM (inactive); in assay [9], 39.4 µM (inactive); in assay [10], 13.6 µM (inactive); in assay [11], 26.8 µM (inactive); in assay [12], 16.1 µM (inactive). The GI50 in [13] was 44 µM (inactive); in assay [14], > 100 µM (inactive); in assay [15] it was 43.8 µM (inactive); in assay [16] it was 22 µM (inactive); in assay [17], 42.4 µM (inactive); in [18], 43.8 µM (inactive). In addition, the GI50 in assay [19] was 45.2 µM (inactive); in assay [20] it was 42.2 µM (inactive).

With `Cc1ccc(/C=C2\CCCC(CN(C)C)C2=O)cc1` (stereo not given), the GI50 in assay [1] was 14.3 µM (inactive); in [2], 15.6 µM (inactive); in assay [3], 2.49 µM (inactive); in [4] it was 20.4 µM (inactive); in [5] it was 3.21 µM (inactive); in assay [6], 1.81 µM (inactive). In addition, the GI50 in assay [7] was 1.85 µM (inactive); in assay [8], 1.97 µM (inactive); in assay [9] it was 1.91 µM (inactive); in assay [10], 0.0951 µM (active); in assay [11], 3.32 µM (inactive); in assay [12], 3.33 µM (inactive). Moreover, the GI50 in [13] is 4.76 µM (inactive); in assay [14], 13.6 µM (inactive); in [15], 8.13 µM (inactive); in assay [16], 1.75 µM (inactive); in assay [17], 2.77 µM (inactive); in assay [18], 13.5 µM (inactive). Also, the GI50 in assay [19] is 1.88 µM (inactive); in [20] it was 2.03 µM (inactive).

Take `C=C1C(=O)CCC1C(=O)O` (stereo not given): the GI50 in assay [1], in assay [2], in [3], in assay [4], in assay [5] and in assay [6] was > 100 µM (inactive) each time. The GI50 in assay [7], in assay [8], in [9], in assay [10], in assay [11] and in [12] was > 100 µM (inactive) each time. The GI50 in [13] was > 100 µM (inactive); in [14] it was > 100 µM (inactive); in [15], 11.8 µM (inactive); in assay [16], > 100 µM (inactive); in [17] it was > 100 µM (inactive); in [18], > 100 µM (inactive). In addition, the GI50 in [19] was 61.8 µM (inactive); in assay [20] it was > 100 µM (inactive).

In the case of `Cc1cccc2c1[C@]13OC(C)[C@]4(C)CC5OC(=O)[C@@]1(C)[C@@H]5[C@]34C(=O)O2` (stereo not given in full), the GI50 in assay [1], in [2], in [3], in [4], in assay [5] and in assay [6] was > 100 µM (inactive) throughout. Moreover, the GI50 in assay [7], in assay [8], in assay [9], in assay [10], in [11] and in [12] was > 100 µM (inactive) throughout. Further, the GI50 in assay [13], in [14], in assay [15], in [16], in assay [17] and in assay [18] was > 100 µM (inactive) in each case. Moreover, the GI50 in assay [19] and in assay [20] was > 100 µM (inactive) throughout.

(Values after ChEMBL document CHEMBL1201862, “PubChem BioAssay data set” (2004).)
